Test results: patent US9781927B2, “Microbicidal composition” (Dow Global Technologies LLC, priority 2016, dated 2017)

How the values were obtained:
[1] = system: Pseudomonas aeruginosa ATCC 10145 and Staphylococcus aureus ATCC 6538; assay: Biocidal efficacy and synergy of glutaraldehyde and Surf. B against aerobic (facultative) bacteria (2 h kill, serial dilution enumeration); format: cell-based; settings: Glut part, alone (1:0) or in combination with Surf. B, 37° C., approximately 10^7 CFU/mL, 0.85% NaCl
Experimental: (§1) Surfactants and biocides were evaluated for synergy by determining the synergy index (S.I.) of the combination. Synergy index was calculated based the concentration required to achieve a certain level of bacterial kill when the two antimicrobial compounds (A and B) alone and in combinations. The tests organisms were anaerobic sulfate-reducing bacteria (Desulfovibrio longus ATCC #51456), facultative bacteria Pseudomonas aeruginosa ATCC #10145 and Staphylococcus aureus ATCC #6538, R^2O(CH2CH(CH3)O)3(CH2CH2O)7H Surf. A R^2O(CH2CH(CH3)O)3(CH2CH2O)5H Surf. B R^2O(CH2CH(CH3)O)3(CH2CH2O)13H Surf. C where R^2 is a mixture of C8-C14 linear alkyl groups.
(§2) SI is calculated as follows: Ca/CA+Cb/CB=Synergy Index (“SI”)
(§3) Wherein: • Ca=Concentration of biocide A required to achieve a certain level of bacterial kill when used in combination with B • CA=Concentration of biocide A required to achieve a certain level of bacterial kill when used alone • Cb=Concentration of biocide B required to achieve a certain level of bacterial kill when used in combination with A • CB=Concentration of biocide B required to achieve a certain level of bacterial kill when used alone When the sum of Ca/CA and Cb/CB is greater than one, antagonism is indicated.
Sterile 0.85% NaCl solution was inoculated with approximately 10^7 CFU/mL of Pseudomonas aeruginosa ATCC 10145 and Staphylococcus aureus ATCC 6538. […]

[2] = system: Desulfovibrio longus ATCC 51456; assay: Biocidal efficacy and synergy of glutaraldehyde and Surf A-C against anaerobic sulfate-reducing bacteria (2 h kill, serial dilution enumeration); format: cell-based; settings: Glut part, 35° C.
Experimental: as §1
Inside an anaerobic chamber (Bactron anaerobic chamber), a deoxygenated sterile salt solution (3.1183 g of NaCl, 1.3082 mg of NaHCO3, 47.70 mg of KCl, 72.00 mg of CaCl2, 54.49 mg of MgSO4, 172.28 mg of Na2SO4, 43.92 mg of Na2CO3 in 1 L water) was inoculated with Desulfovibrio longus ATCC 51456 to a final bacterial concentration of 10^6 to 10^7 CFU/mL. Aliquots of this cell suspension were then treated with glutaraldehyde, and each of Surf A-C at selected active concentrations. After incubation at 35° C. for 2 hours, viable bacteria in the aliquots were enumerated using serial dilution method.
as §2, §3

O=CCCCC=O [Glut, glutaraldehyde, (1,5-pentanedial) CAS No. 111-30-8]
Concentration (active ppm) for more than 99.999% bacterial kill in 2 hours, Glut [1]: 29.6 active ppm | Concentration (active ppm) for complete bacterial kill in 2 hours, Glut ([2]; alone (1:0) or in combination with Surf C): 29.6 active ppm | Concentration (active ppm) for 99.99% bacterial kill in 2 hours, Glut ([2]; alone (1:0) or in combination with Surf. A, 10^6 to 10^7 CFU/mL): 13.2 active ppm | Concentration (active ppm) for more than 99.999% bacterial kill in 2 hours, Glut ([2]; alone (1:0) or in combination with Surf. B): 29.6 active ppm
